This passage reports AC50, IC50 and GI50 results from US20260285853A1, “COMPOUNDS AND METHODS FOR MODULATING SPLICING” (REMIX THERAPEUTICS INC., priority 2023, published 2026).

The AC50 is the concentration giving half of the maximal activity seen. By IC50 is commonly meant the concentration needed to halve the response being measured. The GI50 is the concentration at which growth is held to half of that of the control.

Common to all, as to assay type: cell-based
For test [1], the system named is HTT mRNA. The test can be described thus: Splicing RT-qPCR assay (THP), Table 2A. The following applies: Table 2A, THP; for AC50: HTT alternative junction (AJ) mRNA, read-out: HTT AJ (AC50, increase in alternative junction mRNA); for IC50: HTT canonical junction (CJ) mRNA, read-out: HTT CJ (IC50, decrease in canonical junction mRNA).
For test [2], the system named is MYB mRNA. The test can be described thus: Splicing RT-qPCR assay (THP), Table 2A. The settings on record: Table 2A, THP; for AC50: MYB alternative junction (AJ) mRNA, read-out: MYB AJ (AC50, increase in alternative junction mRNA); for IC50: MYB canonical junction (CJ) mRNA, read-out: MYB CJ (IC50, decrease in canonical junction mRNA). Background: Quantitative PCR measures a nucleic acid by following its amplification.

In test [3] the test system is HTT mRNA. In words: Gene panel canonical junction qPCR assay, decrease in CJ mRNA, Table 3. The following applies: decrease in CJ mRNA levels, canonical junction qPCR, gene panel. The procedure, abridged: (§1)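 IC50 denotes the concentration giving 50% decrease in canonical-junction mRNA, fitted by 4-parameter logistic to percentage response derived from ΔΔCt versus housekeeping gene and DMSO control. Cells (A673 or K562) exposed 24 h to 11-point 3-fold serial dilutions from 10 uM top, DMSO ≤0.25%; junction-spanning primer/probe qPCR.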

Test [4] has as its system MYB mRNA. The description is as above. The settings on record: decrease in CJ mRNA levels, canonical junction qPCR, gene panel. The procedure, abridged: as §1
The test system of test [5] is SH-SY5Y (human neuroblastoma) cells. The test can be described thus: Cell viability, Cell Titer Glo 2.0 assay. The settings on record: read-out: Viability SHSY5Y.3 GI50. The procedure, abridged:
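Viability was read by CellTiter-Glo 2.0 luminescence after a 72-hour compound exposure at 37° C. under 5% CO2. Cells were in IMDM plus 10% FBS containing 0.1% DMSO, and medium-only wells gave the blank.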
(In ATP-based viability assays light output follows the ATP content of the culture.)

Structures are written as SMILES.

With `COc1nc2c(C(=O)Nc3cc(F)c4nn(C)cc4c3)ccc(N3C[C@@H](C)N[C@@H](C)C3)c2s1` [Compound 720], the AC50 in the test on HTT mRNA [1] is 100 to 1000 nM; in the test with MYB mRNA [2], < 100 nM. Moreover, the IC50 in the test with HTT mRNA [1] was 100 to 1000 nM; in the test with MYB mRNA [2] it was < 100 nM; in the test with HTT mRNA [3], 100 to 1000 nM; in the test with MYB mRNA [4], < 100 nM. For the same molecule, the concentration for 50% growth inhibition (GI50) in test [5] was < 100 nM.
For `Cc1cn2cc(NC(=O)c3ccc(N4CCC(NC5CC5)CC4)c4cn(C)nc34)nc2c(CC2CCOC2)n1` (stereo not shown) [Compound 722, 4-[4-(cyclopropylamino)-1-piperidyl]-2-methyl-N-[6-methyl-8-(tetrahydrofuran-3-ylmethyl)imidazo[1,2-a]pyrazin-2-yl]indazole-7-carboxamide 2,2,2-trifluoroacetate], the half-maximal activity concentration (AC50) in the test with HTT mRNA [1] and in the test with MYB mRNA [2] was > 10000 nM each time. The concentration for half-maximal inhibition (IC50) in the test with HTT mRNA [1], in the test on MYB mRNA [2], with HTT mRNA [3] and in the test on MYB mRNA [4] was > 10000 nM each time. The concentration for 50% growth inhibition (GI50) in test [5] was 1000 to 10000 nM.
For the molecule `CCNC1CCN(c2cc(Br)c(C(=O)Nc3cn4cc(C)nc4c(F)c3OC)c3nn(C)cc23)CC1` [Compound 723], the AC50 was 100 to 1000 nM in the test with HTT mRNA [1] and < 100 nM with MYB mRNA [2]. For the same molecule, the half-maximal inhibitory concentration (IC50) was 100 to 1000 nM in the test with HTT mRNA [1], < 100 nM with MYB mRNA [2], 100 to 1000 nM with HTT mRNA [3] and < 100 nM in the test with MYB mRNA [4]. In test [5], the GI50 is 100 to 1000 nM.
As for `CC(=O)Nc1nc2c(C(=O)Nc3cc(F)c4nn(C)cc4c3)ccc(N3C[C@H](C)N[C@@H](C)C3)c2s1` [Compound 724, 2-acetamido-7-[(3S,5S)-3,5-dimethylpiperazin-1-yl]-N-(7-fluoro-2-methyl-indazol-5-yl)-1,3-benzothiazole-4-carboxamide], the half-maximal activity concentration (AC50) is 1000 to 10000 nM with HTT mRNA [1] and < 100 nM with MYB mRNA [2]. Also, the IC50 in the test with HTT mRNA [1] was 100 to 1000 nM; in the test on MYB mRNA [2], < 100 nM; in the test on HTT mRNA [3], 100 to 1000 nM; in the test on MYB mRNA [4], < 100 nM. Also, the GI50 in test [5] fell in the range of 1000 to 10000 nM.
As for `CC(=O)NCc1nc(C)cn2cc(NC(=O)c3ccc(N4CCC(NC5CC5)CC4)c4cn(C)nc34)nc12` [Compound 725, N-[8-(acetamidomethyl)-6-methyl-imidazo[1,2-a]pyrazin-2-yl]-4-[4-(cyclopropylamino)-1-piperidyl]-2-methyl-indazole-7-carboxamide], the AC50 in the test on HTT mRNA [1] and in the test on MYB mRNA [2] was > 10000 nM in each case. In addition, the IC50 with HTT mRNA [1], with MYB mRNA [2], in the test on HTT mRNA [3] and in the test on MYB mRNA [4] was > 10000 nM in each case. Moreover, the GI50 in test [5] is > 10000 nM.
As to `COc1nc2c(C(=O)Nc3cc4cn(C)nc4c(C)c3O)ccc(N3C[C@H](C)N[C@@H](C)C3)c2s1` [Compound 726, 7-[(3S,5S)-3,5-dimethylpiperazin-1-yl]-N-(6-hydroxy-2,7-dimethyl-indazol-5-yl)-2-methoxy-1,3-benzothiazole-4-carboxamide], the AC50 in the test with HTT mRNA [1] was > 10000 nM; in the test on MYB mRNA [2], 100 to 1000 nM. The IC50 in the test on HTT mRNA [1] was > 10000 nM; with MYB mRNA [2] it was 1000 to 10000 nM; in the test with HTT mRNA [3], > 10000 nM; in the test on MYB mRNA [4] it was 1000 to 10000 nM. In test [5], the GI50 is 1000 to 10000 nM.
Consider `COc1nc2c(C(=O)Nc3ccc4nn(C)cc4c3F)ccc(N3C[C@H](C)N[C@@H](C)C3)c2s1` [Compound 727, 7-((3S,5S)-3,5-dimethylpiperazin-1-yl)-N-(4-fluoro-2-methyl-2H-indazol-5-yl)-2-methoxybenzo[d]thiazole-4-carboxamide 2,2,2-trifluoroacetate], for which the half-maximal activity concentration (AC50) is 100 to 1000 nM in the test with HTT mRNA [1] and < 100 nM with MYB mRNA [2]. Besides, the IC50 with HTT mRNA [1] was 100 to 1000 nM; with MYB mRNA [2], < 100 nM; in the test with HTT mRNA [3], 100 to 1000 nM; in the test with MYB mRNA [4], < 100 nM. In addition, the GI50 in test [5] is < 100 nM.
As to `COc1nc2c(C(=O)Nc3cc4cn(C)nc4cc3O)ccc(N3C[C@H](C)N[C@@H](C)C3)c2s1` [Compound 728, 7-[(3S,5S)-3,5-dimethylpiperazin-1-yl]-N-(6-hydroxy-2-methyl-indazol-5-yl)-2-methoxy-1,3-benzothiazole-4-carboxamide], the figures for the half-maximal activity concentration (AC50) in the test with HTT mRNA [1] and in the test on MYB mRNA [2] were > 10000 nM and 100 to 1000 nM, respectively. In addition, the IC50 in the test on HTT mRNA [1] was > 10000 nM; with MYB mRNA [2], 100 to 1000 nM; with HTT mRNA [3], > 10000 nM; with MYB mRNA [4] it was 100 to 1000 nM. The GI50 in test [5] is 1000 to 10000 nM.
In the case of `COc1nc2c(C(=O)Nc3ccc4nn(C)cc4c3OC)ccc(N3C[C@H](C)N[C@@H](C)C3)c2s1` [Compound 729, 7-[(3S,5S)-3,5-dimethylpiperazin-1-yl]-2-methoxy-N-(4-methoxy-2-methyl-indazol-5-yl)-1,3-benzothiazole-4-carboxamide], the half-maximal activity concentration (AC50) with HTT mRNA [1] and in the test on MYB mRNA [2] was > 10000 nM in each case. The IC50 in the test on HTT mRNA [1] is 1000 to 10000 nM; in the test with MYB mRNA [2], > 10000 nM; in the test with HTT mRNA [3], 1000 to 10000 nM; in the test with MYB mRNA [4] it was > 10000 nM. In addition, in test [5], the GI50 was 1000 to 10000 nM.
On to `COc1nc2c(C(=O)Nc3ccc(=O)n(C)c3)ccc(N3C[C@H](C)N[C@@H](C)C3)c2s1` [Compound 730, 7-((3S,5S)-3,5-dimethylpiperazin-1-yl)-2-methoxy-N-(1-methyl-6-oxo-1,6-dihydropyridin-3-yl)benzo[d]thiazole-4-carboxamide 2,2,2-trifluoroacetate], for which the AC50 was > 10000 nM with HTT mRNA [1] and 100 to 1000 nM with MYB mRNA [2]. Further, the concentration for half-maximal inhibition (IC50) in the test with HTT mRNA [1] was > 10000 nM; in the test with MYB mRNA [2], 100 to 1000 nM; in the test with HTT mRNA [3] it was > 10000 nM; with MYB mRNA [4] it was 100 to 1000 nM. The GI50 in test [5] was in the range of 1000 to 10000 nM.
For the molecule `COc1nc2c(C(=O)Nc3cc(CNS(C)(=O)=O)c4nn(C)cc4c3)ccc(N3C[C@H](C)N[C@@H](C)C3)c2s1` [Compound 731, 7-((3S,5S)-3,5-dimethylpiperazin-1-yl)-2-methoxy-N-(2-methyl-7-(methylsulfonamidomethyl)-2H-indazol-5-yl)benzo[d]thiazole-4-carboxamide 2,2,2-trifluoroacetate], the AC50 was > 10000 nM in the test with HTT mRNA [1] and 100 to 1000 nM in the test on MYB mRNA [2]. Further, the IC50 in the test with HTT mRNA [1] is > 10000 nM; in the test with MYB mRNA [2], 100 to 1000 nM; with HTT mRNA [3], > 10000 nM; in the test on MYB mRNA [4], 100 to 1000 nM. Further, the GI50 in test [5] lay within 1000 to 10000 nM.
Turning to `COc1nc2c(C(=O)Nc3cc(F)c4nn(C)cc4c3)ccc(N3CCN[C@@H](C(C)C)C3)c2s1` [Compound 732], the figures for the AC50 in the test on HTT mRNA [1] and in the test on MYB mRNA [2] were > 10000 nM and < 100 nM, respectively. Further, the half-maximal inhibitory concentration (IC50) in the test with HTT mRNA [1] is > 10000 nM; in the test on MYB mRNA [2], < 100 nM; in the test with HTT mRNA [3], > 10000 nM; in the test with MYB mRNA [4], < 100 nM. Moreover, in test [5], the GI50 lay in the range of 100 to 1000 nM.
Consider `Cc1cn2cc(NC(=O)c3ccc(N4CCC(NC5CC5)CC4)c4cn(C)nc34)nc2c(Cn2ccc(=O)[nH]c2=O)n1` [Compound 733, 4-(4-(cyclopropylamino)piperidin-1-yl)-N-(8-((2,4-dioxo-3,4-dihydropyrimidin-1(2H)-yl)methyl)-6-methylimidazo[1,2-a]pyrazin-2-yl)-2-methyl-2H-indazole-7-carboxamide 2,2,2-trifluoroacetate], for which the half-maximal activity concentration (AC50) in the test on HTT mRNA [1] and in the test with MYB mRNA [2] was > 10000 nM each time. The concentration for half-maximal inhibition (IC50) with HTT mRNA [1], in the test with MYB mRNA [2], in the test with HTT mRNA [3] and in the test on MYB mRNA [4] was > 10000 nM throughout. Also, in test [5], the 50% growth inhibitory concentration (GI50) was in the range of 1000 to 10000 nM.
